From paper PMC3335202 (Journal of Medicinal Chemistry, 2012)

Key:
[1] = system: Human embryonic stem cell H9 lines carrying MYH6-mCherry reporters; experiment: hESC cardiogenesis assay; type: cell-based; settings: for induction of cardiogenesis (class in words): dose-response behaviour
[2] = system: β-catenin-dependent canonical Wnt pathway; experiment: Wnt inhibition assay; type: cell-based, human; settings: compared with the well-tolerated parent (9/1)

| Compound | induction of cardiogenesis (class in words) ([1]; hESCs) | other results |
| --- | --- | --- |
| O=C1CCCc2cccc(NC(=O)[C@H]3CC[C@H](N4C(=O)[C@@H]5[C@@H]6CC[C@@H](C6)[C@@H]5C4=O)CC3)c21 [Compound 29, 4-(cis-endo-(1,3-Dioxooctahydro-2H-4,7-methanoisoindol-2-yl))-N-(8-oxo-5,6,7,8-tetrahydronaphthalen-1-yl)-trans-cyclohexylcarboxamide] | potent stimulators of cardiogenesis | concentration giving maximum percent cardiogenesis ([1]; hESCs): 150 nM; fold greater cardiogenic potency (lower concentration) compared to 1 ([1]; ratio of concentrations for maximum cardiogenesis): 30 fold |
| O=C1c2ccccc2-c2cccc(NC(=O)[C@H]3CC[C@H](N4C(=O)[C@@H]5[C@@H]6CC[C@@H](C6)[C@@H]5C4=O)CC3)c21 [Compound 30, 4-(cis-endo-(1,3-Dioxooctahydro-2H-4,7-methanoisoindol-2-yl))-N-(9H-fluoren-9-on-1-yl)-trans-cyclohexylcarboxamide] | dose-dependent induction of cardiogenesis functional activity |  |
| COc1cc(Br)ccc1NC(=O)[C@H]1CC[C@H](N2C(=O)[C@@H]3[C@@H]4CC[C@@H](C4)[C@@H]3C2=O)CC1 [Compound 53, 4-(cis-endo-1,3-Dioxooctahydro-2H-4,7-methanoisoindol-2-yl)-N-(4-bromo-2-methoxyphenyl)-trans-cyclohexylcarboxamide] | dose-dependent induction of cardiogenesis functional activity |  |
| O=C(Nc1cccc2cccnc12)c1ccc(N2C(=O)C3C(C2=O)[C@H]2CC[C@@H]3O2)cc1 (some centres unmarked) [Compound 39, 4-(Hexahydro-1H-4,7-epoxyisoindole-1,3(2H)-dion-2-yl)-N-(quinolin-8-yl)benzamide] | functionally inactive as inducers of cardiogenesis | fold less potent in Wnt inhibition [2]: > 10 fold |
| COC(=O)c1ccccc1NC(=O)[C@H]1CC[C@H](N2C(=O)[C@@H]3[C@@H]4CC[C@@H](C4)[C@@H]3C2=O)CC1 [Compound 27] | dose-dependent induction of cardiogenesis functional activity |  |
| O=C1[C@@H]2[C@@H]3CC[C@@H](C3)[C@@H]2C(=O)N1[C@H]1CC[C@H](C(=O)Nc2nccc3ccccc23)CC1 [Compound 13, 4-(cis-endo-1,3-Dioxooctahydro-2H-4,7-methanoisoindol-2-yl)-N-(isoquinolin-1-yl)-trans-cyclohexylcarboxamide] | dose-dependent induction of cardiogenesis functional activity |  |
| CC(=O)c1ccccc1NC(=O)[C@H]1CC[C@@H](N2C(=O)[C@@H]3[C@@H]4CC[C@@H](C4)[C@@H]3C2=O)CC1 [Compound 56, 4-(cis-endo-1,3-Dioxooctahydro-2H-4,7-methanoisoindol-2-yl)-N-(2-acetylphenyl)-cis-cyclohexyl carboxamide] | dose-dependent induction of cardiogenesis functional activity |  |
| CC(=O)c1ncccc1NC(=O)[C@H]1CC[C@H](N2C(=O)[C@@H]3[C@@H]4CC[C@@H](C4)[C@@H]3C2=O)CC1 [Compound 34, 4-(cis-endo-(1,3-Dioxooctahydro-2H-4,7-methanoisoindol-2-yl))-N-(2-acetyl-pyridin-3-yl)-trans-cyclohexylcarboxamide] | potent stimulators of cardiogenesis |  |
| O=C1[C@@H]2[C@@H]3CC[C@@H](C3)[C@@H]2C(=O)N1[C@H]1CC[C@H](C(=O)Nc2cccnc2Cl)CC1 [Compound 55, 4-(cis-endo-1,3-Dioxooctahydro-2H-4,7-methanoisoindol-2-yl)-N-(2-chloropyridin-3-yl)-trans-cyclohexylcarboxamide] | dose-dependent induction of cardiogenesis functional activity |  |
| O=C(Nc1cccc2cccnc12)c1ccc(N2C(=O)[C@@H]3[C@@H]4CC[C@@H](C4)[C@@H]3C2=O)cc1 [Compound 9, 4-(cis-endo-1,3-Dioxooctahydro-2H-4,7-methanoisoindol-2-yl)-N-(quinolin-8-yl)benzamide] | dose-dependent induction of cardiogenesis functional activity |  |
| O=C(Nc1cccc2cccnc12)c1ccc(N2C(=O)[C@@H]3[C@H](C2=O)[C@@H]2C=C[C@H]3CC2)cc1 [Compound 36, 4-cis-endo-(3a,4,7,7a-Tetrahydro-1H-4,7-ethanoisoindole-1,3(2H)-dion-2-yl)-N-(quinolin-8-yl) benzamide] |  | fold less potent in Wnt inhibition [2]: > 10 fold |
| O=C1[C@@H]2[C@@H]3CC[C@@H](C3)[C@@H]2C(=O)N1[C@H]1CC[C@H](C(=O)Nc2cncc3ccccc23)CC1 [Compound 14, 4-(cis-endo-1,3-Dioxooctahydro-2H-4,7-methanoisoindol-2-yl)-N-(isoquinolin-4-yl)-trans-cyclohexylcarboxamide] | dose-dependent induction of cardiogenesis functional activity |  |
| O=C1[C@@H]2[C@@H]3CC[C@@H](C3)[C@@H]2C(=O)N1[C@H]1CC[C@H](C(=O)Nc2cncc(O)c2)CC1 [Compound 54, 4-(cis-endo-1,3-Dioxooctahydro-2H-4,7-methanoisoindol-2-yl)-N-(5-hydroxyl-pyridin-3-yl)-trans-cyclohexylcarboxamide] | dose-dependent induction of cardiogenesis functional activity |  |
| O=C1[C@@H]2[C@@H]3CC[C@@H](C3)[C@@H]2C(=O)N1[C@H]1CC[C@H](C(=O)Nc2cccc3ccncc23)CC1 [Compound 18, 4-(cis-endo-1,3-Dioxooctahydro-2H-4,7-methanoisoindol-2-yl)-N-(isoquinolin-8-yl)-trans-cyclohexylcarboxamide] | dose-dependent induction of cardiogenesis functional activity | Z score at 625 nM ([1]; cardiogenesis, relative to DMSO control, 625 nM): negative |
| CC(=O)c1ccc(NC(=O)[C@H]2CC[C@H](N3C(=O)[C@@H]4[C@@H]5CC[C@@H](C5)[C@@H]4C3=O)CC2)cn1 [Compound 35, 4-(cis-endo-(1,3-Dioxooctahydro-2H-4,7-methanoisoindol-2-yl))-N-(6-acetyl-pyridin-3-yl)-trans-cyclohexylcarboxamide] | functionally inactive as inducers of cardiogenesis |  |
| O=C1[C@@H]2[C@@H]3CC[C@@H](C3)[C@@H]2C(=O)N1[C@H]1CC[C@H](C(=O)Nc2cccc3cccnc23)CC1 [Compound 10, 4-(cis-endo-1,3-Dioxooctahydro-2H-4,7-methanoisoindol-2-yl)-N-(quinolin-8-yl)-trans-cyclohexyl carboxamide] | potent stimulators of cardiogenesis | Emax ([1]; Homo sapiens, Embryonic stem cell, read-out: % cardiogenesis): 145% |
| O=C1[C@@H]2[C@@H]3CC[C@@H](C3)[C@@H]2C(=O)N1[C@H]1CC[C@@H](C(=O)Nc2cccc3cccnc23)CC1 [Compound 11, 4-(cis-endo-1,3-Dioxooctahydro-2H-4,7-methanoisoindol-2-yl)-N-(quinolin-8-yl)-cis-cyclohexyl carboxamide] | dose-dependent induction of cardiogenesis functional activity |  |
| O=C(Nc1cccc2ccccc12)c1ccc(N2C(=O)[C@@H]3[C@@H]4CC[C@@H](C4)[C@@H]3C2=O)cc1 [Compound 12, 4-(cis-endo-1,3-Dioxooctahydro-2H-4,7-methanoisoindol-2-yl)-N-(naphtalen-1-yl) benzamide] | functionally inactive as inducers of cardiogenesis |  |
